We go through four molecules from article PMC10746280, “Bacterial efflux pump modulators prevent bacterial growth in macrophages and under broth conditions that mimic the host environment” (mBio, 2023).

In one series the test system is RAW 264.7 macrophages. Description: SAFIRE macrophage assay: host toxicity (adherent macrophage count, morphology). Format: cell-based. The essentials: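 Compound or DMSO added 2 h after gentamicin-protected infection (MOI ~30, sifB::gfp SL1344) of RAW 264.7 cells and left to 18 h. Fixed cells imaged; intracellular GFP area per macrophage gives bacterial load, while retained adherent MitoTracker Red-stained macrophages define host toxicity.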

For another series, the target named is T1, E. coli AcrB (Escherichia coli, UniProt P31224).
T1 construct: 4xHis (C); made in house; host or cells: E. coli BL21-Gold (DE3), plasmid derived from pSPORT1
Description: Single-particle cryo-EM of AcrB-EPM complexes in nanodiscs. Particulars: "binding" protomer of the AcrB trimer; 10 µM EPM. The method, then:
To elucidate at high resolution how the EPM analogs interact with AcrB, we used cryo-electron microscopy (cryo-EM). We overproduced and purified the E. coli AcrB protein containing a 6×His tag at the C-terminus and reconstituted the protein into lipidic nanodiscs ([17]). We incubated the AcrB-nanodisc samples with the parent compound or with one of three structurally dissimilar EPMs analogs (CU032, CU232, CU244) to form AcrB-EPM complexes. We then solved single-particle cryo-EM structures of these complexes to resolutions between 2.63 and 2.82 Å (Table 2; Fig. 3).
AcrB was purified from E. coli BL21(DE3)ΔacrB/pSPORTΩacrB cells and reconstituted into lipidic nanodiscs. To assemble AcrB into nanodiscs, a mixture containing 10 µM AcrB, 30 µM membrane scaffold protein (1E3D1), and 900 µM E. coli total extract lipid was incubated for 15 min at room temperature. After, 0.8 mg/mL prewashed Bio-Beads (Bio-Rad) was added. The resultant mixture was incubated for 1 h on ice, followed by overnight incubation at 4°C. The protein-nanodisc solution was filtered through 0.22 µm nitrocellulose filter tubes to remove the Bio-Beads. To separate free nanodiscs from AcrB-loaded nanodiscs, the filtered protein-nanodisc solution was purified using a Superose six column (GE Healthcare) equilibrated with 20 mM Tris-HCl (pH 7.5) and 100 mM NaCl. Fractions corresponding to the size of the trimeric AcrB-nanodisc complex were collected for cryo-EM ([46]). We then incubated 0.6 mg/mL AcrB-nanodisc with 10 µM EPM for 2 h and solved structure of the AcrB-EPM complex using single-particle cryo-EM to a resolution of 2.20 Å.

Setting [1] is: 5 uM compound, n=1, DMSO solvent control = 100.
The mark [2] stands for this setting: 25 uM compound, n=1, DMSO solvent control = 100.

Structures are written as SMILES.

T1 sequence (P31224 whole entry): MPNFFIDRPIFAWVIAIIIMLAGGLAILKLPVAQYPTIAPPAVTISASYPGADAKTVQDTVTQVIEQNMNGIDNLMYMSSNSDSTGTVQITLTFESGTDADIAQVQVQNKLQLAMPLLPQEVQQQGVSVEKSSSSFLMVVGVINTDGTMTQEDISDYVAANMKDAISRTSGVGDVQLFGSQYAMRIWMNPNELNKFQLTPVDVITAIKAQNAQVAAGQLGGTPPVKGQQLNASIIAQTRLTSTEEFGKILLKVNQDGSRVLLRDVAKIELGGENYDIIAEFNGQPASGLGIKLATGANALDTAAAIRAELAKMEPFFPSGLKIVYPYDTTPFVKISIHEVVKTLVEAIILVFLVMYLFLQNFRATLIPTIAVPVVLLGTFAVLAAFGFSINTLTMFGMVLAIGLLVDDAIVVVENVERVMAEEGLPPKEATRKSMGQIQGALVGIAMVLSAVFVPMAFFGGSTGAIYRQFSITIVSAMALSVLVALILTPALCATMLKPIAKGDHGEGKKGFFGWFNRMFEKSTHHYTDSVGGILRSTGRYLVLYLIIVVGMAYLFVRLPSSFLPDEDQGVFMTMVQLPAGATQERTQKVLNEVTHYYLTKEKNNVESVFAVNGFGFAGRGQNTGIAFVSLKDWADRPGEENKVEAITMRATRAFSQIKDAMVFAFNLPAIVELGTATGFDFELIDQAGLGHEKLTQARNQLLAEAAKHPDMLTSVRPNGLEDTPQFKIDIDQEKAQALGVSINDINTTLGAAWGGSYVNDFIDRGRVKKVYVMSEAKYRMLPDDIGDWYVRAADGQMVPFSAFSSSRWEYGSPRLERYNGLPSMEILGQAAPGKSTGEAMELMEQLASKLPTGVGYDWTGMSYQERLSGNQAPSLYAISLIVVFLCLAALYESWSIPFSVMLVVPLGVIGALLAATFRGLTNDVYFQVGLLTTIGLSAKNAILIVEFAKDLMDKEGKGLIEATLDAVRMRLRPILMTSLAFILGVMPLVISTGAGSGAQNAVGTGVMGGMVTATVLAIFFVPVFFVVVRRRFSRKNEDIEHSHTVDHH

`NC1CCN(CC(O)COc2cccc(C(F)(F)F)c2)CC1` (centres unmarked) [CU232]: the “5 uM Avg Cell # Score” value in the series with RAW 264.7 macrophages (setting [1]) is recorded as 124. For the same molecule, the “25 uM Avg Cell # Score” value with RAW 264.7 macrophages (setting [2]) is reported as 113. The “binding site in AcrB (cryo-EM)” value at E. coli AcrB is reported as “distal drug-binding site”.

For `OC(COc1ccc(Cl)c(Cl)c1)CN1CCC(Nc2nccc(C(F)(F)F)n2)CC1` (centres unmarked) [EPM35], the “5 uM Avg Cell # Score” value in the series on RAW 264.7 macrophages (5 uM) amounted to 98; in the series on RAW 264.7 macrophages (5 uM, listed as CU035) it was 107. For the same molecule, the “25 uM Avg Cell # Score” value in the series on RAW 264.7 macrophages (25 uM) was found to be 72; in the series with RAW 264.7 macrophages (25 uM, listed as CU035) it was 134. Besides, the “binding site in AcrB (cryo-EM)” value at E. coli AcrB is given as “distal drug-binding pocket”.

For the molecule `NC1CCN(CC(O)COc2ccc(Cl)c(Cl)c2)C1` (centres unmarked) [CU032], the “5 uM Avg Cell # Score” value in the series on RAW 264.7 macrophages (5 uM) was 95. In the series with RAW 264.7 macrophages (25 uM), the “25 uM Avg Cell # Score” value stood at 95. For the same molecule, the “binding site in AcrB (cryo-EM)” value on E. coli AcrB is reported as “distal drug-binding pocket”.

Turning to `OC(CN[C@H]1[C@@H]2CNC[C@@H]21)COc1cc(Cl)cc(Cl)c1` (some centres unmarked) [CU244], the “5 uM Avg Cell # Score” value in the series on RAW 264.7 macrophages (setting [1]) came out at 121. In addition, the “25 uM Avg Cell # Score” value in the series on RAW 264.7 macrophages (setting [2]) came to 108. Besides, on E. coli AcrB, the “binding site in AcrB (cryo-EM)” value is on record as “distal drug-binding site”.
